Results reported in patent publication US8445502B2, “Pharmaceutical formulations comprising salts of a protein kinase inhibitor and methods of using same” (Astex Pharmaceuticals, Inc., priority 2007, dated 2013).
Read-outs that look alike come from different tables or passages of the source.

How the values were obtained:
[1] = test system: SF-767 glioblastoma multiforme cells; experiment: MTS cell death assay with ionizing radiation; type: cell-based
Experimental: SF-767 glioblastoma multiforme cells were treated with MP470 at 1 μM, 800c Gy IR (ionizing radiation), or a combination of both.

[2] = test system: HT-29 colorectal cancer cells; type: in vivo
Experimental: MP470 and MP470 HCl were tested against different tumor types in athymic nude mice as summarized below (Table 8). Various formulations and routes were evaluated. HT-29 colorectal cancer cells and SB-CL2 melanoma cells were implanted subcutaneously, while A549 lung cancer cells, MiaPaCa-2 pancreatic cancer cells, TT medullary thyroid cancer cells, and OVCAR-3 ovarian cancer cells were implanted […] in the hind flank of mice. All animals were allowed to develop medium-sized (80-125 mg) tumors, before initiation of dosing. Tumor volume and mouse bodyweight were followed over the course of the study.
HT-29 Colorectal Model—Eighteen athymic nude mice were injected subcutaneously with HT-29 colorectal cancer cells. After tumor formation, animals received either 10 or 20 mg/kg MP470 by intraperitoneal (IP) injection using a qd5×2 wk schedule. On Day 5 of treatment, tumor growth rates in vehicle control animals were 19.5 mm3/d, while MP470-treated animals had tumor growth rates of 1.4 mm3/d (10 mg/kg) and −5.0 mm3/d (20 mg/kg). Tumor growth continued to decline throughout the 14 days of study. On Day 14, the tumor growth rates were 16.4 mm3/d (vehicle) compared to 4.3 mm3/d (10 mg/kg) and 5.5 mm3/d (20 mg/kg) in treated animals.

[3] = Solubility of MP470.HCl in common solvents at room temperature; type: physicochemical

| SMILES | Increase in cell death over either agent alone ([1]; MP470 1 μM combined with 800c Gy ionizing radiation) | Cell death (MTS assay) ([1]; MP470 at 1 μM alone) | tumor growth rate ([2]; Day 5, 10 mg/kg IP qd5×2 wk (vehicle 19.5)) [mm3/d] | tumor growth rate ([2]; Day 5, 20 mg/kg IP qd5×2 wk (vehicle 19.5)) [mm3/d] | tumor growth rate ([2]; Day 14, 10 mg/kg IP (vehicle 16.4)) [mm3/d] | tumor growth rate ([2]; Day 14, 20 mg/kg IP (vehicle 16.4)) [mm3/d] | Outcome: tumor growth ([2]; HT-29 colon, IP 10, 20 mg/kg, (qd × 5) × 2 w, TV-13) | Solubility ([3]; Benzyl alcohol) [mg/mL] | Solubility ([3]; DMF) [mg/mL] | Solubility ([3]; DMSO) [mg/mL] | Solubility ([3]; Ethanol) [mg/mL] | Solubility ([3]; Glycerol) [mg/mL] | Solubility ([3]; Methanol) [mg/mL] | Solubility ([3]; Propylene glycol) [mg/mL] | Solubility (mg/mL) ([3]; Water) |
| --- | --- | --- | --- | --- | --- | --- | --- | --- | --- | --- | --- | --- | --- | --- | --- |
| S=C(NCc1ccc2c(c1)OCO2)N1CCN(c2ncnc3c2oc2ccccc23)CC1 [MP470, 4-[1]benzofuro[3,2-d]pyrimidin-4-yl-N-(1,3-benzodioxol-5-ylmethyl)piperazine-1-carbothioamide] | more than two-fold | will induce cell death | 1.4 | −5.0 | 4.3 | 5.5 | tumor growth was slowed but not reversed |  |  |  |  |  |  |  |  |
| Cl.S=C(NCc1ccc2c(c1)OCO2)N1CCN(c2ncnc3c2oc2ccccc23)CC1 [MP470.HCl, 4-[1]benzofuro[3,2-d]pyrimidin-4-yl-N-(1,3-benzodioxol-5-ylmethyl)piperazine-1-carbothioamide hydrochloride] |  |  |  |  |  |  |  | 48 | 9 | 17 | 0.4 | 4 | 3 | 4 | < detectable limit by HPLC |
